Holding throughout (experiment): NCI tumour cell line growth inhibition, 48 h
Experiment [1] relates to 786-0.
Experiment [2] relates to ACHN.
Experiment [3] concerns CCRF-CEM.
Experiment [4] relates to HCT-116.
Experiment [5] deals with HL-60.
In experiment [6] the test system is LOX IMVI.
Experiment [7] has as its system MDA-MB-231.
Experiment [8] relates to MDA-MB-435.
Experiment [9] concerns NCI-H23.
For experiment [10], the system named is NCI-H522.
Experiment [11] has as its system OVCAR-3.
The test system of experiment [12] is OVCAR-5.
Experiment [13] deals with SF-268.
Experiment [14] relates to SF-539.
Experiment [15] has as its system SK-MEL-28.
Experiment [16] deals with SK-OV-3.
For experiment [17], the system named is SNB-75.
Experiment [18] deals with T47D.
The test system of experiment [19] is TK-10.
The test system of experiment [20] is UO-31.

Here are results for 10 compounds from ChEMBL document CHEMBL1201862, “PubChem BioAssay data set” (2004).

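Cells were grown in 96-well plates and exposed to each compound for 48 hours at five concentrations; endpoints were interpolated linearly between bracketing concentrations, or set to the highest concentration if not reached. GI50 is the concentration that inhibits growth by half.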 The source made the active and inactive calls. Rule as the data show it: active = GI50 up to about 1.1 µM and inactive = higher.

As to `Cc1cc(Oc2cnc(=O)[nH]c2)cs1`, the GI50 in [1], in experiment [2], in [3], in experiment [4], in experiment [5] and in [6] was > 100 µM (inactive) throughout. Besides, the GI50 in [7], in [8], in [9], in experiment [10], in experiment [11] and in experiment [12] was > 100 µM (inactive) each time. The GI50 in experiment [13], in experiment [14], in experiment [15], in experiment [16], in experiment [17] and in [18] was > 100 µM (inactive) each time. Further, the GI50 in experiment [19] and in experiment [20] was > 100 µM (inactive) in each case.
As for `COc1ccc(-c2nc(SCC(=O)N/N=C/c3ccc([N+](=O)[O-])cc3)[nH]c2-c2ccc(OC)cc2)cc1`, the GI50 in experiment [1] is 20 µM (inactive); in experiment [2], 20.1 µM (inactive); in experiment [3], 3.18 µM (inactive); in experiment [4] it was 8.49 µM (inactive); in [5], 4.07 µM (inactive); in [6], 14 µM (inactive). Further, the GI50 was 21.2 µM (inactive) in experiment [7]; 3.24 µM (inactive) in [8]; 21.9 µM (inactive) in [9]; 6.95 µM (inactive) in experiment [10]; 10.4 µM (inactive) in experiment [11]; 16.2 µM (inactive) in experiment [12]. The GI50 in experiment [13] is 25.7 µM (inactive); in experiment [14], 11.9 µM (inactive); in experiment [15], 21.7 µM (inactive); in [16], 20.2 µM (inactive); in experiment [17] it was 15.2 µM (inactive); in experiment [18], 15.8 µM (inactive). Besides, the results for the GI50 in [19] and in experiment [20] were 22.3 µM (inactive) and 18.8 µM (inactive), respectively.
For the compound `C=CCN1CN(C2CCCCC2)CSC1=S`, the GI50 in experiment [1] is 3.27 µM (inactive); in experiment [2], 4.02 µM (inactive); in experiment [3] it was 0.818 µM (active); in experiment [4], 1.55 µM (inactive); in experiment [5] it was 0.129 µM (active); in experiment [6], 3.9 µM (inactive). The GI50 in experiment [7] was 15.5 µM (inactive); in [8], 0.944 µM (active); in experiment [9], 8.28 µM (inactive); in experiment [10], 2.8 µM (inactive); in experiment [11] it was 7.01 µM (inactive); in experiment [12], 9.08 µM (inactive). The GI50 in [13] is 2.32 µM (inactive); in [14] it was 1.36 µM (inactive); in experiment [15], 5.18 µM (inactive); in [16], 14.4 µM (inactive); in experiment [17] it was 6.12 µM (inactive); in experiment [18], 0.883 µM (active). Besides, the GI50 is 3.69 µM (inactive) in experiment [19] and 8 µM (inactive) in experiment [20].
Regarding `CN(C)C(=S)C(Cl)(c1ccccc1)c1ccccc1`, the GI50 in [1] was 44.4 µM (inactive); in experiment [2] it was 90.2 µM (inactive); in [3], 27.1 µM (inactive); in [4], 38.4 µM (inactive); in experiment [5] it was 22.9 µM (inactive); in experiment [6] it was 34.5 µM (inactive). Besides, the GI50 in [7] was 59.7 µM (inactive); in [8], 37.1 µM (inactive); in experiment [9] it was 53.3 µM (inactive); in experiment [10], 33.3 µM (inactive); in experiment [11], 82 µM (inactive); in experiment [12], > 100 µM (inactive). For the same compound, the GI50 in experiment [13] was > 100 µM (inactive); in experiment [14], 36.6 µM (inactive); in experiment [15], > 100 µM (inactive); in [16], > 100 µM (inactive); in experiment [17], 15.8 µM (inactive); in experiment [18], 22.4 µM (inactive). Moreover, the GI50 in experiment [19] is > 100 µM (inactive); in experiment [20], 84.9 µM (inactive).
Take `COc1ccc(-n2c(N)c(C#N)[nH]c2=O)cc1`: the GI50 in experiment [1] is > 10 µM (inactive); in [2], > 10 µM (inactive); in experiment [3] it was > 10 µM (inactive); in experiment [4], > 10 µM (inactive); in experiment [5], > 10 µM (inactive); in experiment [6], 1.79 µM (inactive). The GI50 was > 10 µM (inactive) in experiment [7]; > 10 µM (inactive) in experiment [8]; > 10 µM (inactive) in experiment [9]; > 10 µM (inactive) in experiment [10]; > 10 µM (inactive) in [11]; 3.5 µM (inactive) in experiment [12]. The GI50 in [13], in [14], in experiment [15], in experiment [16], in [17] and in [18] was > 10 µM (inactive) each time. Further, the GI50 in experiment [19] and in experiment [20] was > 10 µM (inactive) throughout.
For the compound `COc1ccc2c(C)c(Oc3c(Cl)c(Cl)c(O)c(C#N)c3C#N)oc2c1`, the GI50 in experiment [1], in experiment [2], in experiment [3], in experiment [4], in experiment [5] and in experiment [6] was > 100 µM (inactive) in each case. Besides, the GI50 in experiment [7], in [8], in experiment [9], in experiment [10], in experiment [11] and in experiment [12] was > 100 µM (inactive) each time. Further, the GI50 in experiment [13], in [14], in experiment [15], in [16], in experiment [17] and in [18] was > 100 µM (inactive) throughout. For the same compound, the GI50 in experiment [19] and in [20] was > 100 µM (inactive) throughout.
For the compound `Cc1cn(C2CC(O)C(Cn3nncc3Cn3ccc(=O)[nH]c3=O)O2)c(=O)[nH]c1=O` (stereo not given), the GI50 in experiment [1], in [2], in experiment [3], in experiment [4], in [5] and in experiment [6] was > 100 µM (inactive) each time. Also, the GI50 in experiment [7], in experiment [8], in experiment [9], in [10], in experiment [11] and in experiment [12] was > 100 µM (inactive) each time. For the same compound, the GI50 in [13], in [14], in experiment [15], in experiment [16], in experiment [17] and in [18] was > 100 µM (inactive) throughout. Besides, the GI50 in [19] and in experiment [20] was > 100 µM (inactive) each time.
Take `CCN(CC)c1ncnc2c1ncn2CCNC(CO)(CO)CO`: the GI50 in [1], in experiment [2], in [3], in [4], in experiment [5] and in experiment [6] was > 100 µM (inactive) in each case. The GI50 in experiment [7], in [8], in [9], in experiment [10], in experiment [11] and in experiment [12] was > 100 µM (inactive) in each case. Besides, the GI50 in experiment [13], in experiment [14], in experiment [15], in experiment [16], in experiment [17] and in experiment [18] was > 100 µM (inactive) each time. Further, the GI50 in experiment [19] and in [20] was > 100 µM (inactive) each time.
Regarding `Oc1cccc2ccc(Br)nc12`, the GI50 is > 100 µM (inactive) in [1]; > 100 µM (inactive) in experiment [2]; 46.6 µM (inactive) in [3]; > 100 µM (inactive) in [4]; 36.2 µM (inactive) in [5]; > 100 µM (inactive) in [6]. Also, the GI50 in experiment [7], in experiment [8], in [9], in experiment [10], in experiment [11] and in experiment [12] was > 100 µM (inactive) each time. Besides, the GI50 is > 100 µM (inactive) in [13]; > 100 µM (inactive) in experiment [14]; > 100 µM (inactive) in experiment [15]; > 100 µM (inactive) in experiment [16]; > 100 µM (inactive) in [17]; 51.6 µM (inactive) in experiment [18]. The GI50 in experiment [19] and in experiment [20] was > 100 µM (inactive) each time.
With `O/N=N/c1ccccn1.OCC1OC2OC3C(CO)OC(OC4C(CO)OC(OC5C(CO)OC(OC6C(CO)OC(OC7C(CO)OC(OC1C(O)C2O)C(O)C7O)C(O)C6O)C(O)C5O)C(O)C4O)C(O)C3O` (stereo not given), the GI50 in [1] is > 100 µM (inactive); in experiment [2], > 100 µM (inactive); in experiment [3] it was 67.5 µM (inactive); in experiment [4] it was 41.6 µM (inactive); in experiment [5], 28.1 µM (inactive); in [6] it was 57.3 µM (inactive). For the same compound, the GI50 in experiment [7] is > 100 µM (inactive); in experiment [8], 19.2 µM (inactive); in experiment [9] it was > 100 µM (inactive); in [10] it was 68.2 µM (inactive); in [11], 40.8 µM (inactive); in experiment [12] it was > 100 µM (inactive). Further, the GI50 in [13] was > 100 µM (inactive); in experiment [14], 52.8 µM (inactive); in experiment [15], 62.5 µM (inactive); in experiment [16], > 100 µM (inactive); in [17], 37.6 µM (inactive); in experiment [18], > 100 µM (inactive). The GI50 in experiment [19] and in experiment [20] was > 100 µM (inactive) throughout.
